Source: PMC6749524, “Identification of New Antifungal Agents Targeting Chitin Synthesis by a Chemical-Genetic Method” (Molecules, 2019)

Experiments:
[1] = tested on: chs3∆ (chs3::KanMX in BY4741); assay: MIC in compound library screening assay, chs3∆ yeast; assay type: cell-based, S. cerevisiae
Description: (§1) The compound library is a combination of synthetic compounds from Enamine (Kyiv, Ukraine) and Life Chemicals Inc. (Burlington, ON, Canada) and natural products from the Institute of Medicinal Biotechnology. We used WT, chs3∆, and fks1∆ yeast strains to screen new antifungal agents. The screening assays were performed in 96-well plates in a final volume of 200 μL. Fresh yeast cells (OD600 = 0.8) were diluted to 10^5 CFU/mL in YPD medium. We added 198 μL of diluted culture and 2 μL of compounds into each well, and the final concentration of compounds was 100 μg/mL with 1% DMSO. The yeast cells were incubated at 30 °C for 24 hours to assess the growth. For the compounds that inhibited the growth of all three yeast strains, they were serially diluted to determine the minimal inhibit concentration (MIC) with the same method. MIC endpoints were defined as the lowest concentration of drugs that cause a 90% decrease in growth compared to the drug-free control (MIC90).

[2] = tested on: fks1∆ (fks1::KanMX in BY4741); assay: MIC in compound library screening assay, fks1∆ yeast; assay type: cell-based, S. cerevisiae
Description: as §1

[3] = tested on: C. albicans ATCC10231; assay: Checkerboard assay, synergy with caspofungin; assay type: cell-based; conditions: Candida albicans; for MIC of Caspofungin Combination: MIC of caspofungin in combination with the named compound; for MIC Combination: MIC of the compound in combination with caspofungin
Description: (§2) Fresh cell cultures of WT S. cerevisiae and C. albicans ATCC10231 (OD600 = 0.8) were diluted to 10^4 CFU/mL in YPD medium. The in vitro synergistic and antagonistic effects of compounds were determined using checkerboard assay. MIC endpoints were defined as the lowest concentration of drugs, causing 80% decrease in viability compared to the drug-free control (MIC80). The calculation and interpretation of the fractional inhibitory concentration index (FICI) were carried out by referring to the document standards. FICI = (MIC of drug A in combination) / (MIC of drug A alone) + (MIC of drug B in combination) / (MIC of drug B alone). FIC ≤0.5 was considered as a synergistic effect, and >2 was considered as antagonism.

[4] = tested on: WT S. cerevisiae; assay: Checkerboard assay, synergy with caspofungin; assay type: cell-based; conditions: S. cerevisiae, MIC80; for MIC of Caspofungin Combination: MIC of caspofungin in combination with the named compound; for MIC Combination: MIC of the compound in combination with caspofungin
Description: as §2

[5] = tested on: chitin content in WT yeast cells; assay: Chitin content assay (Morgan–Elson method); assay type: cell-based, S. cerevisiae; conditions: 16 hours at 30 °C
Description: The chitin content was assessed by measuring the level of D-glucosamine according to the method described by Morgan–Elson. WT yeast cells were grown to 10^5 CFU/ml in YPD medium and then treated with IMB-D10 (12.5 μg/mL), IMB-F4 (25 μg/mL), or DMSO (0.25%) for 16 hours at 30 °C. Cells were collected by centrifugation at 1500 g for 5 min and then freeze-dried after being washed twice with deionized water. Five-milligram sample was weighted and hydrolyzed by H2SO4 at 100 °C for 4 hours. The hydrolysates were centrifuged at 12,000 rpm for 5 min. We removed 100 μL supernatant to another tube and adjusted pH value to 3 with 2 M KOH; then the volume was set to 1 mL with water. One milliliter acetylacetone (7% acetylacetone in 1 M Na2CO3) was added into the tube and incubated for 25 min at 100 °C. The 1.5 mL Ehrlich^’s reagent and 1.5 mL absolute ethyl alcohol were added into the tube for further incubation for 1 hour at 60 °C. The OD520 was determined with BioMet 3S UV-Visible Spectrophotometer (Thermo Scientific^TM, Waltham, MA, USA). N-acetyl-D-glucosamine was used to establish a standard curve for the quantification of chitin levels. All reactions were performed in triplicate.

[6] = tested on: chitin in WT yeast cells; assay: CFW staining of chitin, fluorescence microscopy; assay type: cell-based, S. cerevisiae; conditions: 12.5 or 25 μg/mL, 3 or 5 hours, vs DMSO control
Description: WT S. cerevisiae and C. albicans ATCC10231 were grown to 10^5 CFU/mL in YPD medium and then treated with IMB-D10 (12.5 or 25 μg/mL), IMB-F4 (12.5 or 25 μg/mL), or 0.25% DMSO for 3 and 5 hours at 30 ℃. Cells were collected by centrifugation at 1500 g for 5 min and resuspended in PBS. Some cells were examined using 100 × / 1.25 oil immersion objective (DM2500, Leica) and analyzed by Leica las. Some cells were stained with 100 μg/mL Calcofluor White M2R (CFW, Sigma-Aldrich, St. Louis, MO, USA for 3 min and washed three times with water. Then, the cells were examined under the UV light for fluorescent signals.

[7] = tested on: Mycobacterium smegmatis; assay: Growth inhibition of bacteria; assay type: cell-based; conditions: at 100 μg/mL
[8] = tested on: C. albicans; assay: MIC of CFW in the presence of compounds, checkerboard assay; assay type: cell-based, Candida albicans
Description: as §2

Compound	MIC ([1]; Saccharomyces cerevisiae, 24 h, read-out: MIC, chs3∆, chs3∆ mutant, YPD, 30 °C, 24 hours, MIC90) [µg/mL]	MIC ([2]; Saccharomyces cerevisiae, 24 h, read-out: MIC, fks1∆) [µg/mL]	MIC ([3]; ATCC10231, compound alone, MIC80, read-out: MIC Alone) [µg/mL]	MIC of Caspofungin Combination ([3]; MIC80) [µg/mL]	MIC Combination ([3]; MIC80) [µg/mL]	FICI ([3]; fractional inhibitory concentration index with caspofungin, ≤0.5 synergistic)	MIC of Caspofungin Combination [4] [µg/mL]	MIC Combination [4] [µg/mL]	MIC ([4]; Saccharomyces cerevisiae, compound alone, read-out: MIC Alone) [µg/mL]	relative chitin content compared to cells treated with DMSO ([5]; 12.5 μg/mL)	relative chitin content compared to cells treated with DMSO ([5]; 25 μg/mL) [%]	CFW fluorescent signal around the cell wall and at the primary septum [6]	growth inhibition [7]	resistance of C. albicans to CFW ([8]; 25 and 50 μg/mL IMB-F4)	MIC, chs3∆ ([1]; chs3∆ mutant, YPD, 30 °C, 24 hours, MIC90) [µg/mL]	MIC, fks1∆ ([2]; fks1∆ mutant, YPD, 30 °C, 24 hours, MIC90) [µg/mL]	MIC Alone ([3]; compound alone, MIC80) [µg/mL]	MIC Alone ([4]; compound alone) [µg/mL]	MIC of CFW in the presence of IMB-D10 ([8]; C. albicans, IMB-D10 at 50 μg/mL) [µg/mL]
COc1cc(OC)cc(C(=O)N(CCn2ccnc2)c2nc3ccc(OC)cc3s2)c1 [IMB-F4, N-(2-(1H-imidazol-1-yl)ethyl)-3,5-dimethoxy-N-(6-methoxybenzo[d]thiazol-2-yl)benzamide]	> 100	50	> 100	0.003125	12.5	<0.5	0.0075	25	> 100	46.09 ± 8.01%	27 ± 5.33	weaker fluorescent signal	did not inhibit the growth	increased the resistance					
N-(2-(diethylamino) ethyl)-N-(7-hydroxy-4-methoxybenzo[d]thiazol -2-yl)-2-oxo-2H-chromene-3-carboxamide [IMB-D10]				0.00625	12.5		0.0075	12.5		did not reduce the chitin level significantly	47.61 ± 6.79	weaker fluorescent signal	did not inhibit the growth		100	25	100	50	100
